Ends that are not written are not given here.
System: human corneal epithelial cells (HCEC)
Assay: CCK8 cytotoxicity assay, HCEC
Type: cell-based
Conditions: 40 μg/mL, 24 h
Description: Figure 2 Protopolybia-MP III inhibits HSV-1 replication in human cell lines. (A) Cytotoxicities of Protopolybia-MP III to A549 cells, HCEC, and SK-N-MC. Cells were treated with Protopolybia-MP III at different concentrations or PBS for 24 h, and then cytotoxicities were determined by the CCK8 assay. (B,C) Suppression of intracellular HSV-1 infection by Protopolybia-MP III in A549 cells, HCEC, and SK-N-MC. Cells were preincubated with Protopolybia-MP III at different concentrations or PBS for 1 h and then infected with HSV-1 at an MOI of 1. After 24 h, the cells were collected. Intracellular HSV-1 RNA was analyzed by qPCR (B), and intracellular HSV-1 ICP0 protein expression levels were analyzed by Western blotting (C). (D) Inhibition of Protopolybia-MP III on extracellular HSV-1 particles in A549 cells, HCEC, and SK-N-MC. Cells were treated with Protopolybia-MP III at different concentrations or PBS for 24 h, and then the supernatant was collected and evaluated in a plaque formation assay. * p < 0.05. ** p < 0.01. *** p < 0.001.
Cells were seeded in a 96-well plate (7000–10,000 cells per well) and cultured at 37 °C overnight. Peptides in a series of concentrations were added to the medium, and cells were then incubated at 37 °C for 24 h. […] Finally, the absorbance was measured at 450 nm using a microplate reader (BioTek, Winooski, VT, USA).

## INWLKLGKAVIDAL-NH2 [Protopolybia-MP III]
  cytotoxicity to HCEC: almost nontoxic

Reference: article PMC10976043, “Function and Mechanism of Antiviral Wasp Venom Peptide Protopolybia-MP III and Its Derivatives against HSV-1” (Toxins, 2024)
